Columns and labels:
Human Calpain 2/NS1 = target: T1, Human Calpain 2/NS1 (Homo sapiens, UniProt P17655); experiment: Calpain inhibition, continuous fluorescence (FRET substrate) assay, calpain 2; assay type: biochemical; settings: SensoLyte 520 FRET substrate, 25C
T1 sequence (P17655 1-700): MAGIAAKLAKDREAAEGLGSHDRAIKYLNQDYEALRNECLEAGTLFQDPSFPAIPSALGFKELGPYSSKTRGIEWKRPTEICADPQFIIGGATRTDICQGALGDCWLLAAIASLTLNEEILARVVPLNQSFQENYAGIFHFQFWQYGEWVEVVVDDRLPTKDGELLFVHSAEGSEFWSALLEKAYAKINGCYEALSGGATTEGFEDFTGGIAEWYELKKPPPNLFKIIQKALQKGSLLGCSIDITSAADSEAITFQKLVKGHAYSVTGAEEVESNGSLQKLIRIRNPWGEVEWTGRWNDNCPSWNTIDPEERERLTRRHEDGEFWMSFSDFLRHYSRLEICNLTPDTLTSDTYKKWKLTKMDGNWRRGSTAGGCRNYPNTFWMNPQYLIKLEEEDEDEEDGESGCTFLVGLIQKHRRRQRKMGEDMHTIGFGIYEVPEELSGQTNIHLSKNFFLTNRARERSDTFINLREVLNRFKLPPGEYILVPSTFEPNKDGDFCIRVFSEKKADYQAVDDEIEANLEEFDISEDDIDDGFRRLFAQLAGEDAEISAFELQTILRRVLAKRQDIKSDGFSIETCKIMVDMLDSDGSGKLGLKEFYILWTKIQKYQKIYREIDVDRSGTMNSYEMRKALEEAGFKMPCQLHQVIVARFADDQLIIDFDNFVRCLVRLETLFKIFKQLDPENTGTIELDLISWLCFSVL
T1 sequence (P04632 1-268 partner): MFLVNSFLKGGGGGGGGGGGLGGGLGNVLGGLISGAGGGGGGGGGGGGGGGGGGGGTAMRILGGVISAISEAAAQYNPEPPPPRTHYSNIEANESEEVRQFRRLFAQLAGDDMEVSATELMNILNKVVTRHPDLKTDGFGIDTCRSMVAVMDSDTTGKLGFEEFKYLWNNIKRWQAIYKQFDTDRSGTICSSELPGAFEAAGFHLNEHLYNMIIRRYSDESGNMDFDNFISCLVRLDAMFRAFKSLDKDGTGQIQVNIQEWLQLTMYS
Method: (§1) Calpain 1, 2, and 9 activity and inhibition thereof was assessed by means of a continuous fluorescence assay. The SensoLyte 520 Calpain substrate (Anaspec Inc) was optimized for detecting calpain activity. This substrate contains an internally quenched 5-FAM/QXLTM 520 FRET pair. Calpains 1, 2, and 9 cleave the FRET substrate into two separate fragments resulting in an increase of 5-FAM fluorescence that is proportional to calpain activity Assays were typically setup in black 384-well plates using automated liquid handling as follows. Calpain assay base buffer typically contains 50 mM Tris, pH 7.5, 100 mM NaCl and 1 mM DTT. Inhibitors were serially diluted in DMSO and used to setup 2× mixtures with calpains in the aforementioned buffer. After incubation at ambient temperature (25C), the reaction was initiated by adding a 2× mix of the fluorescent peptide substrate and CaCl2) (required for in-situ calpain activation) in the same buffer. Reaction progress curve data were typically collected for 10 min using excitation/emission wavelengths of 490 nm/520 nm on SpectraMax i3× or the FLIPR-Tetra plate readers (Molecular Devices Inc). Reaction rates were calculated from progress curve slopes typically over 1-5 min. Dose response curves (rate vs. log inhibitor concentration) were typically fit to a 4-parameter logistic function to extract IC50 values.

[1] = tested on: Calpain activity in SH-SY5Y cells; experiment: SH-SY5Y Suc-LLVY-AMC fluorescence assay; assay type: cell-based; settings: Homo sapiens, read-out: SH-SY5Y + AMC IC50
Human Calpain 9/NS1 = target: T2, Human Calpain 9/NS1 (Homo sapiens, UniProt O14815); experiment: Calpain inhibition, continuous fluorescence (FRET substrate) assay, calpain 9; assay type: biochemical; settings: SensoLyte 520 FRET substrate, 25C
T2 sequence (O14815 1-690): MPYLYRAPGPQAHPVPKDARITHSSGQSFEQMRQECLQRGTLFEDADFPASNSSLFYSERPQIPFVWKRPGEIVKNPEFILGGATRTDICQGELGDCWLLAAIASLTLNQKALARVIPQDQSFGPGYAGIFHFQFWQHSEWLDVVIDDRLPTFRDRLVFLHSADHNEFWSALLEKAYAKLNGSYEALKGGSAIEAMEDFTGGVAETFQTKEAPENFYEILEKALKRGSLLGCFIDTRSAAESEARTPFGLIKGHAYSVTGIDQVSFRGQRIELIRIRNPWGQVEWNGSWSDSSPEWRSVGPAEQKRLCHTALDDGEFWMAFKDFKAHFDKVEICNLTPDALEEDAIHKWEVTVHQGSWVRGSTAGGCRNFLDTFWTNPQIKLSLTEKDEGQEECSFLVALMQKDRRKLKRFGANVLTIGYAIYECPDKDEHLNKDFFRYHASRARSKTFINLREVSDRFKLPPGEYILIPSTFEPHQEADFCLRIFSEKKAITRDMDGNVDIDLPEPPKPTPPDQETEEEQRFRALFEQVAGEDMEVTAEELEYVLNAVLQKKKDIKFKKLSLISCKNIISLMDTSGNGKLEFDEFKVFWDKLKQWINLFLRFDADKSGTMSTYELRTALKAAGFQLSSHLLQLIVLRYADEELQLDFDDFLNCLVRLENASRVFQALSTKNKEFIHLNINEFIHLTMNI
T2 sequence (P04632 1-268 partner): T1 sequence (P04632 1-268 partner)
Method: as §1

Human Calpain 1/NS1 = target: T3, Human Calpain 1/NS1 (Homo sapiens, UniProt P07384); experiment: Calpain inhibition, continuous fluorescence (FRET substrate) assay, calpain 1; assay type: biochemical; settings: SensoLyte 520 FRET substrate, 25C
T3 sequence (P07384 1-714): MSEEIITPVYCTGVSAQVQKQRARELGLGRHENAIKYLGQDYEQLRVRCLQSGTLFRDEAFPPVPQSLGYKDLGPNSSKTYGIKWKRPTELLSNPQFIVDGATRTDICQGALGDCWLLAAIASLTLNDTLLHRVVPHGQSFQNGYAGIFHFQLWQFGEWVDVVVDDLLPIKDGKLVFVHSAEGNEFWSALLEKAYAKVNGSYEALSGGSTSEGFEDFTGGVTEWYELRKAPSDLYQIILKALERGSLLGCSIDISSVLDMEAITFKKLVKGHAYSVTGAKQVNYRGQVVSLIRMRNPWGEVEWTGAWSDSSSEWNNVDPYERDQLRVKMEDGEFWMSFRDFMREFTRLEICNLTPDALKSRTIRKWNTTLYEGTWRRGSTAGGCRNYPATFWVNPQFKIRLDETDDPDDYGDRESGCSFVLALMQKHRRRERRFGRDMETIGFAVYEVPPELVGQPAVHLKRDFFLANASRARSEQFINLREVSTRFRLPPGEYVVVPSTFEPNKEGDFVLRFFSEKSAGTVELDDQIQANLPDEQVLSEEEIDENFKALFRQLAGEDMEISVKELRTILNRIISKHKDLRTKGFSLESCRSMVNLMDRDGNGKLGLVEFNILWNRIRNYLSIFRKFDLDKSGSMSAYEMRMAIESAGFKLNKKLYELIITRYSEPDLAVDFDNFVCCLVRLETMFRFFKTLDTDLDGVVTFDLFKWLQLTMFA
T3 sequence (P04632 1-268 partner): T1 sequence (P04632 1-268 partner)
Method: as §1

[2] = tested on: Calpain activity in SH-SY5Y cells; experiment: SH-SY5Y spectrin breakdown product (SBDP-150) western blot assay; assay type: cell-based; settings: Homo sapiens, read-out: SH-SY5Y Spectrin IC50
[3] = SH-SY5Y cells, 100 uM Suc-LLVY-AMC
[4] = SH-SY5Y cells, 25 uM A23187, SBDP-150 western blot

| Structure (SMILES) | IC50 (Human Calpain 2/NS1) [µM] | IC50 [1, 3] [µM] | IC50 (Human Calpain 9/NS1) [µM] | IC50 (Human Calpain 1/NS1) [µM] | IC50 [2, 4] [µM] | IC50 ([1]; SH-SY5Y) [µM] | IC50 ([2]; SH-SY5Y) [µM] |
| --- | --- | --- | --- | --- | --- | --- | --- |
| Cn1cc(C(=O)NC(Cc2ccccc2)C(=O)C(N)=O)c(-c2nccc3ccccc23)n1 (stereo not shown) [Compound 10, N-(4-AMINO-3,4-DIOXO-1-PHENYLBUTAN-2-YL)-3-(ISOQUINOLIN-1-YL)-1-METHYL-1H-PYRAZOLE-4-CARBOXAMIDE] | < 3 | > 25 | < 3 | 3 to 10 | > 25 |  |  |
| Cc1cc(C(=O)NC(Cc2ccccc2)C(=O)C(N)=O)n(-c2ncc3ccccc3n2)n1 (stereo not shown) [Compound 11, N-(4-AMINO-3,4-DIOXO-1-PHENYLBUTAN-2-YL)-3-METHYL-1-(QUINAZOLIN-2-YL)-1H-PYRAZOLE-5-CARBOXAMIDE] | < 3 | < 10 | < 3 | < 3 | 10 to 25 |  |  |
| COc1cccc(-c2nn(C)cc2C(=O)NC(Cc2ccccc2)C(=O)C(N)=O)c1OC (stereo not shown) [Compound 12, N-(4-AMINO-3,4-DIOXO-1-PHENYLBUTAN-2-YL)-3-(2,3-DIMETHOXYPHENYL)-1-METHYL-1H-PYRAZOLE-4-CARBOXAMIDE] | < 3 | > 25 | < 3 | 3 to 10 | > 25 |  |  |
| Cn1cc(C(=O)NC(Cc2ccccc2)C(=O)C(N)=O)c(-c2cnc3ccccc3n2)n1 (stereo not shown) [Compound 13, N-(4-AMINO-3,4-DIOXO-1-PHENYLBUTAN-2-YL)-1-METHYL-3-(QUINOXALIN-2-YL)-1H-PYRAZOLE-4-CARBOXAMIDE] | < 3 | > 25 | < 3 | < 3 | > 25 |  |  |
| Cn1cc(C(=O)NC(Cc2ccccc2)C(=O)C(N)=O)c(-c2cccc3cccnc23)n1 (stereo not shown) [Compound 14] | < 3 | > 25 | < 3 | < 3 | > 25 |  |  |
| Cn1cc(C(=O)NC(Cc2ccccc2)C(=O)C(N)=O)c(-c2cc(Cl)oc2Cl)n1 (stereo not shown) [Compound 15, N-(4-AMINO-3,4-DIOXO-1-PHENYLBUTAN-2-YL)-3-(2,5-DICHLOROFURAN-3-YL)-1-METHYL-1H-PYRAZOLE-4-CARBOXAMIDE] | < 3 | < 10 | < 3 | < 3 | 10 to 25 |  |  |
| Cn1cc(C(=O)NC(Cc2ccccc2)C(=O)C(N)=O)c(-c2cccc3[nH]ncc23)n1 (stereo not shown) [Compound 16, N-(4-AMINO-3,4-DIOXO-1-PHENYLBUTAN-2-YL)-3-(1H-INDAZOL-4-YL)-1-METHYL-1H-PYRAZOLE-4-CARBOXAMIDE] | < 3 | 10 to 25 | < 3 | < 3 | 10 to 25 |  |  |
| CNC(=O)c1cccc(-c2nn(C)cc2C(=O)NC(Cc2ccccc2)C(=O)C(N)=O)c1 (stereo not shown) [Compound 17] | < 3 |  | < 3 | < 3 |  | 10 to 25 | > 25 |
| NC(=O)C(=O)C(Cc1ccccc1)NC(=O)c1cn(C(F)F)nc1-c1cccc2cccnc12 (stereo not shown) [Compound 18, N-(4-AMINO-3,4-DIOXO-1-PHENYLBUTAN-2-YL)-1-(DIFLUOROMETHYL)-3-(QUINOLIN-8-YL)-1H-PYRAZOLE-4-CARBOXAMIDE] | < 3 | < 10 | < 3 | < 3 | > 25 |  |  |
| Cn1cc(C(=O)NC(Cc2ccccc2)C(=O)C(N)=O)c(-c2ccoc2Cl)n1 (stereo not shown) [Compound 19, N-(4-AMINO-3,4-DIOXO-1-PHENYLBUTAN-2-YL)-3-(2-CHLOROFURAN-3-YL)-1-METHYL-1H-PYRAZOLE-4-CARBOXAMIDE] | < 3 | < 10 | < 3 | < 3 | > 25 |  |  |
| NC(=O)C(=O)C(Cc1ccccc1)NC(=O)c1cn(C(F)F)nc1-c1ccoc1Cl (stereo not shown) [Compound 20, N-(4-AMINO-3,4-DIOXO-1-PHENYLBUTAN-2-YL)-3-(2-CHLOROFURAN-3-YL)-1-(DIFLUOROMETHYL)-1H-PYRAZOLE-4-CARBOXAMIDE] | < 3 | < 10 | < 3 | < 3 | < 10 |  |  |
| NC(=O)C(=O)C(Cc1ccccc1)NC(=O)c1cn(C(F)F)nc1-c1coc(Cl)c1 (stereo not shown) [Compound 21, N-(4-AMINO-3,4-DIOXO-1-PHENYLBUTAN-2-YL)-3-(5-CHLOROFURAN-3-YL)-1-(DIFLUOROMETHYL)-1H-PYRAZOLE-4-CARBOXAMIDE] | < 3 | < 10 | < 3 | < 3 | < 10 |  |  |
| NC(=O)C(=O)C(Cc1ccccc1)NC(=O)c1cn(C(F)F)nc1-c1cccc2ccncc12 (stereo not shown) [Compound 22, N-(4-AMINO-3,4-DIOXO-1-PHENYLBUTAN-2-YL)-1-(DIFLUOROMETHYL)-3-(ISOQUINOLIN-8-YL)-1H-PYRAZOLE-4-CARBOXAMIDE] | < 3 | < 10 | < 3 | < 3 | < 10 |  |  |
| Cc1cc(-c2nsnc2C(=O)NC(Cc2ccccc2)C(=O)C(N)=O)c(C)o1 (stereo not shown) [Compound 23, N-(4-AMINO-3,4-DIOXO-1-PHENYLBUTAN-2-YL)-4-(2,5-DIMETHYLFURAN-3-YL)-1,2,5-THIADIAZOLE-3-CARBOXAMIDE] | < 3 | < 10 | < 3 | < 3 | < 10 |  |  |

From US20210009564A1, “CALPAIN MODULATORS AND THERAPEUTIC USES THEREOF” (BLADE THERAPERTICS, INC., priority 2018, published 2021)
